Laboratory results reported in ChEMBL document CHEMBL4261659, “Synthesis and biological evaluation of novel N-substituted nipecotic acid derivatives with a trans-alkene spacer as potent GABA uptake inhibitors” (Bioorg Med Chem, 2018).

Columns and labels:
[1] = target: Sodium- and chloride-dependent GABA transporter 1 (Mus musculus) (UniProt P31648); experiment: Displacement of NO711 from mouse GAT1 expressed in stable HEK293 cells assessed as remaining specific NO711 binding level preincubated at 100 uM for 10 mins followed by NO711 addition and measured after 40 mins by LC-ESI-MS/MS analysis; assay type: cell-based
[2] = tested on: Betaine/GABA transporter BGT1 (Mus musculus); experiment: Inhibition of mouse GAT2 expressed in HEK293 cells assessed as remaining [3H]GABA uptake at 100 uM preincubated for 25 mins followed by [3H]GABA addition and measured after 4 mins by liquid scintillation counting method
[3] = tested on: GABA transporter 3 (Mus musculus); experiment: Inhibition of mouse GAT3 expressed in HEK293 cells assessed as remaining [3H]GABA uptake at 100 uM preincubated for 25 mins followed by [3H]GABA addition and measured after 4 mins by liquid scintillation counting method
GABA transporter 4 = target: T1, GABA transporter 4 (Mus musculus, UniProt P31650); experiment: Inhibition of mouse GAT4 expressed in HEK293 cells assessed as reduction in [3H]GABA uptake preincubated for 25 mins followed by [3H]GABA addition and measured after 4 mins by liquid scintillation counting method; assay type: cell-based
T1 sequence (P31650 whole entry): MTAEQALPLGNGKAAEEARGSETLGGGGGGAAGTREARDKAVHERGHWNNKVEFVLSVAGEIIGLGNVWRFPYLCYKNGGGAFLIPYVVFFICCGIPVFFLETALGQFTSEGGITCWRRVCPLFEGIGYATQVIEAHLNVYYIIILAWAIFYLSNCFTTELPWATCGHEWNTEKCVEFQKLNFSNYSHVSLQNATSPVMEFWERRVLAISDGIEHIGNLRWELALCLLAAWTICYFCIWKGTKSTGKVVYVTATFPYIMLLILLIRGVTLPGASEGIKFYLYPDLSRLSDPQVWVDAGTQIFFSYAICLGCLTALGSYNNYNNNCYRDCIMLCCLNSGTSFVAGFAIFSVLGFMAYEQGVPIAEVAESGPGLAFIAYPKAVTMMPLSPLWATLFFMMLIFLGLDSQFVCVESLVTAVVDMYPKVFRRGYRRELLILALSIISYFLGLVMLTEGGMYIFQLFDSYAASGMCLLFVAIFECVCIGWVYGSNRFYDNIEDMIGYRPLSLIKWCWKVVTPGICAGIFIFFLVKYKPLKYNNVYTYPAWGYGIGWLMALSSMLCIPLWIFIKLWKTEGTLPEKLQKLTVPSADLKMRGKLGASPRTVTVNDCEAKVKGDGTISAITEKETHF

[4] = target: T2, Sodium- and chloride-dependent GABA transporter 1 (Mus musculus, UniProt P31648); experiment: Inhibition of mouse GAT1 expressed in HEK293 cells assessed as reduction in [3H]GABA uptake preincubated for 25 mins followed by [3H]GABA addition and measured after 4 mins by liquid scintillation counting method; assay type: cell-based
[5] = target: T2, Sodium- and chloride-dependent GABA transporter 1; experiment: Displacement of NO711 from mouse GAT1 expressed in stable HEK293 cells preincubated for 10 mins followed by NO711 addition and measured after 40 mins by LC-ESI-MS/MS analysis; assay type: cell-based
[6] = target: T3, GABA transporter 4 (Mus musculus) (UniProt P31650); experiment: Inhibition of mouse GAT4 expressed in HEK293 cells assessed as remaining [3H]GABA uptake at 100 uM preincubated for 25 mins followed by [3H]GABA addition and measured after 4 mins by liquid scintillation counting method; assay type: cell-based
T3 sequence (whole entry): T1 sequence (P31650 whole entry)

[7] = target: Sodium- and chloride-dependent GABA transporter 1 (Mus musculus) (UniProt P31648); experiment: Inhibition of mouse GAT1 expressed in HEK293 cells assessed as remaining [3H]GABA uptake at 100 uM preincubated for 25 mins followed by [3H]GABA addition and measured after 4 mins by liquid scintillation counting method; assay type: cell-based

| Activity [1] | Activity [2] | Activity [3] | IC50 (GABA transporter 4) | IC50 [4] | Ki [5] | Activity [6] | Activity [7] | Compound |
| --- | --- | --- | --- | --- | --- | --- | --- | --- |
| 54% | 69% | 66% | 44.7 µM | 70.8 µM | – | – | – | COc1ccc(C(O)(/C=C/CN2CCCC(C(=O)O)C2)c2ccc(OC)cc2)cc1 (racemic) |
| – | 53% | – | 3.16 µM | 28.2 µM | 8.71 µM | – | – | COc1ccc(C(/C=C/CN2CCCC(C(=O)O)C2)(c2ccc(OC)cc2)c2ccc3c(c2)OCO3)cc1 (racemic) |
| – | – | – | 2.88 µM | 14.1 µM | 7.24 µM | – | – | COc1ccc(C(/C=C/CN2CCC[C@H](C(=O)O)C2)(c2ccc(OC)cc2)c2ccc3sccc3c2)cc1 |
| – | 96% | 71% | – | 13.5 µM | 3.24 µM | 84% | – | COc1ccc(C(C/C=C/CN2CCCC(C(=O)O)C2)c2ccc(OC)cc2)cc1 (racemic) |
| – | 92% | 66% | – | 15.8 µM | 4.68 µM | 69% | – | COc1ccc(C(/C=C/CN2CCCC(C(=O)O)C2)(Cc2ccccc2)c2ccc(OC)cc2)cc1 (racemic) |
| – | 96% | 69% | – | 0.166 µM | 0.0309 µM | 82% | – | O=C(O)C1CCCN(C/C=C/CC(c2ccccc2)c2ccccc2)C1 (racemic) |
| – | 53% | – | 7.59 µM | 38.9 µM | 12.9 µM | – | – | COc1ccc(C(/C=C/CN2CCCC(C(=O)O)C2)(c2ccc(OC)cc2)c2ccsc2)cc1 (racemic) |
| – | 108% | 103% | – | 40.7 µM | 8.32 µM | 89% | – | O=C(O)C1CCCN(C/C=C/C(c2ccccc2)(c2ccccc2)c2ccccc2)C1 (racemic) |
| – | 51% | – | 31.6 µM | 14.1 µM | 3.72 µM | – | – | COc1ccc(C(/C=C/CN2CCCC(C(=O)O)C2)c2ccc(OC)cc2)cc1 (racemic) |
| – | – | – | 5.89 µM | 4.07 µM | 2.14 µM | – | – | O=C(O)C1CCCN(C/C=C/C(c2ccc3occc3c2)(c2ccc3occc3c2)c2ccc3occc3c2)C1 (racemic) |
| – | 78% | 82% | – | – | 33.9 µM | 49% | 65% | COc1ccc(C(/C=C/CN2CCCC(C(=O)O)C2)(c2ccc(OC)cc2)c2nccs2)cc1 (racemic) |
| – | – | – | 15.1 µM | 17.8 µM | 6.31 µM | – | – | O=C(O)C1CCCN(C/C=C/C(c2ccc3c(c2)OCO3)(c2ccc3c(c2)OCO3)c2ccc3c(c2)OCO3)C1 (racemic) |
| – | 55% | 56% | 74.1 µM | 21.4 µM | 9.77 µM | – | – | O=C(O)C1CCCN(C/C=C/CC(c2ccccc2)(c2ccccc2)c2ccccc2)C1 (racemic) |
| 54% | – | – | 20 µM | – | – | – | 50% | O=C(O)C1CCCN(C/C=C/C(c2ccc3sccc3c2)(c2ccc3sccc3c2)c2ccc3sccc3c2)C1 (racemic) |
| – | 66% | – | 41.7 µM | 55 µM | 34.7 µM | – | – | COc1ccc(C(C/C=C/CN2CCCC(C(=O)O)C2)(c2ccc(OC)cc2)c2ccc(OC)cc2)cc1 (racemic) |
| – | – | – | 3.55 µM | 10.2 µM | 3.31 µM | – | – | COc1ccc(C(/C=C/CN2CCCC(C(=O)O)C2)(c2ccc(OC)cc2)c2ccc3sccc3c2)cc1 (racemic) |
| – | 60% | 53% | 66.1 µM | 11.2 µM | 3.09 µM | – | – | COc1ccc(CC(/C=C/CN2CCCC(C(=O)O)C2)(c2ccc(OC)cc2)c2ccc(OC)cc2)cc1 (racemic) |
| 62% | 72% | 83% | – | – | – | 83% | 70% | COc1ccc(C(/C=C/CN2CCCC(C(=O)O)C2)(c2ccc(OC)cc2)c2nccn2C)cc1 (racemic) |
| – | – | – | 10.7 µM | 20.4 µM | 5.5 µM | – | – | Cc1ccc(C(/C=C/CN2CCCC(C(=O)O)C2)(c2ccc(C)cc2)c2ccc(C)cc2)cc1 (racemic) |
